Measured values as given in PubChem BioAssay (NCI).
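Test compounds were applied to cells in 96-well plates for 48 hours at 5 doses. GI50 = concentration required for 50% inhibition of growth. TGI marks complete inhibition of growth.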

Tests used:
Test in all cases: DTP human tumour cell line panel, 48 h
MOLT-4 leukemia = test system: MOLT-4 leukemia
OVCAR-5 ovarian = test system: OVCAR-5 ovarian
CCRF-CEM leukemia = test system: CCRF-CEM leukemia
K-562 leukemia = test system: K-562 leukemia
UACC-257 melanoma = test system: UACC-257 melanoma
LOX IMVI melanoma = test system: LOX IMVI melanoma
A498 renal = test system: A498 renal
A549 NSCLC = test system: A549 NSCLC
HOP-62 NSCLC = test system: HOP-62 NSCLC
SNB-19 CNS = test system: SNB-19 CNS
U251 CNS = test system: U251 CNS
HCT-15 colon = test system: HCT-15 colon
PC-3 prostate = test system: PC-3 prostate
MCF7 breast = test system: MCF7 breast
SK-MEL-5 melanoma = test system: SK-MEL-5 melanoma
NCI-H460 lung = test system: NCI-H460 lung
NCI-H226 lung = test system: NCI-H226 lung
HS 578T breast = test system: HS 578T breast
HCC-2998 colon = test system: HCC-2998 colon
MDA-MB-435 = test system: MDA-MB-435
SK-OV-3 ovarian = test system: SK-OV-3 ovarian
TK-10 renal = test system: TK-10 renal
M14 melanoma = test system: M14 melanoma
KM12 colon = test system: KM12 colon
EKVX NSCLC = test system: EKVX NSCLC
SF-295 CNS = test system: SF-295 CNS
BT-549 breast = test system: BT-549 breast

**Q.** Which GI50 (MOLT-4 leukemia) does the source give for CC1(C)CC[C@]23CC[C@]4(C)[C@H](CC[C@@H]5[C@@]6(C)CCCN(CO)C(C)(C)[C@@H]6CC[C@]54C)[C@H]2[C@H]1OC3 here?
**A.** 2990 nM

**Q.** What about the TGI (MOLT-4 leukemia) of the same molecule?
**A.** 10.2 µM

**Q.** And the GI50 (OVCAR-5 ovarian)?
**A.** 2440 nM

**Q.** And the TGI (OVCAR-5 ovarian)?
**A.** 6.7 µM

**Q.** And the GI50 (CCRF-CEM leukemia)?
**A.** 3.49 µM

**Q.** What about the TGI (CCRF-CEM leukemia) of the same molecule?
**A.** > 100 µM

**Q.** And the GI50 (K-562 leukemia)?
**A.** 2250 nM

**Q.** And the TGI (K-562 leukemia)?
**A.** > 100 µM

**Q.** And the GI50 (UACC-257 melanoma)?
**A.** 10.6 µM

**Q.** And the TGI (UACC-257 melanoma)?
**A.** 24.6 µM

**Q.** What about the GI50 (LOX IMVI melanoma) of the same molecule?
**A.** 1570 nM

**Q.** What about the TGI (LOX IMVI melanoma) of the same molecule?
**A.** 2930 nM

**Q.** And the GI50 (A498 renal)?
**A.** 12 µM

**Q.** And the TGI (A498 renal)?
**A.** 25.6 µM

**Q.** What about the GI50 (A549 NSCLC) of the same molecule?
**A.** 2760 nM

**Q.** And the TGI (A549 NSCLC)?
**A.** 8.98 µM

**Q.** What about the GI50 (HOP-62 NSCLC) of the same molecule?
**A.** 2910 nM

**Q.** What about the TGI (HOP-62 NSCLC) of the same molecule?
**A.** 12.4 µM

**Q.** What about the GI50 (SNB-19 CNS) of the same molecule?
**A.** 3.09 µM

**Q.** What about the TGI (SNB-19 CNS) of the same molecule?
**A.** 12 µM

**Q.** What about the GI50 (U251 CNS) of the same molecule?
**A.** 2050 nM

**Q.** What about the TGI (U251 CNS) of the same molecule?
**A.** 4.7 µM

**Q.** And the GI50 (HCT-15 colon)?
**A.** 1750 nM

**Q.** What about the TGI (HCT-15 colon) of the same molecule?
**A.** 3.71 µM

**Q.** And the GI50 (PC-3 prostate)?
**A.** 2910 nM

**Q.** And the TGI (PC-3 prostate)?
**A.** 13.9 µM

**Q.** What about the GI50 (MCF7 breast) of the same molecule?
**A.** 2200 nM

**Q.** And the TGI (MCF7 breast)?
**A.** 5.64 µM

**Q.** And the GI50 (SK-MEL-5 melanoma)?
**A.** 16.1 µM

**Q.** What about the TGI (SK-MEL-5 melanoma) of the same molecule?
**A.** 30.7 µM

**Q.** What about the GI50 (NCI-H460 lung) of the same molecule?
**A.** 1880 nM

**Q.** And the TGI (NCI-H460 lung)?
**A.** 3.7 µM

**Q.** And the GI50 (NCI-H226 lung)?
**A.** 2620 nM

**Q.** What about the TGI (NCI-H226 lung) of the same molecule?
**A.** 7.85 µM

**Q.** What about the GI50 (HS 578T breast) of the same molecule?
**A.** 3.32 µM

**Q.** What about the TGI (HS 578T breast) of the same molecule?
**A.** 17.1 µM

**Q.** And the GI50 (HCC-2998 colon)?
**A.** 1760 nM

**Q.** What about the TGI (HCC-2998 colon) of the same molecule?
**A.** 3.35 µM

**Q.** What about the GI50 (MDA-MB-435) of the same molecule?
**A.** 2400 nM

**Q.** What about the TGI (MDA-MB-435) of the same molecule?
**A.** 6.67 µM

**Q.** And the GI50 (SK-OV-3 ovarian)?
**A.** 13.9 µM

**Q.** What about the TGI (SK-OV-3 ovarian) of the same molecule?
**A.** 27.7 µM

**Q.** And the GI50 (TK-10 renal)?
**A.** 14 µM

**Q.** And the TGI (TK-10 renal)?
**A.** 28.7 µM

**Q.** And the GI50 (M14 melanoma)?
**A.** 1800 nM

**Q.** What about the TGI (M14 melanoma) of the same molecule?
**A.** 4.04 µM

**Q.** And the GI50 (KM12 colon)?
**A.** 1730 nM

**Q.** And the TGI (KM12 colon)?
**A.** 3.5 µM

**Q.** And the GI50 (EKVX NSCLC)?
**A.** 5.7 µM

**Q.** What about the TGI (EKVX NSCLC) of the same molecule?
**A.** 21.3 µM

**Q.** What about the GI50 (SF-295 CNS) of the same molecule?
**A.** 1960 nM

**Q.** What about the TGI (SF-295 CNS) of the same molecule?
**A.** 3.77 µM

**Q.** What about the GI50 (BT-549 breast) of the same molecule?
**A.** 8.31 µM

**Q.** What about the TGI (BT-549 breast) of the same molecule?
**A.** 26 µM
